These molecules were tested against TAAR1 (Rattus norvegicus, UniProt Q923Y9) (assay: TAAR1 radioligand binding, membranes of stably transfected HEK293 cells (rat)). Details: cell marked 'rat'; radioligand [3H]-rac-2-(1,2,3,4-tetrahydro-1-naphthyl)-2-imidazoline, 4° C.; read-out: Ki (μM) mouse/rat.
Experimental: For the construction of expression plasmids the coding sequences of human, rat and mouse TAAR 1 were amplified from genomic DNA essentially as described by Lindemann et al.. The Expand High Fidelity PCR System (Roche Diagnostics) was used with 1.5 mM Mg^2+ and purified PCR products were cloned into pCR2.1-TOPO cloning vector (Invitrogen) following the instructions of the manufacturer. PCR products were subcloned into the pIRESneo2 vector (BD Clontech, Palo Alto, Calif.), and expression vectors were sequence verified before introduction in cell lines.
HEK293 cells (ATCC #CRL-1573) were cultured essentially as described Lindemann et al. (2005). For the generation of stably transfected cell lines HEK293 cells were transfected with the pIRESneo2 expression plasmids containing the TAAR coding sequences (described above) with Lipofectamine 2000 (Invitrogen) according to the instructions of the manufacturer, and 24 hrs post transfection the culture medium was supplemented with 1 mg/ml G418 (Sigma, Buchs, Switzerland). After a culture period of about 10 d clones were isolated, expanded and tested for responsiveness to trace amines (all compounds purchased from Sigma) with the cAMP Biotrak Enzyme immunoassay (EIA) System (Amersham) following the non-acetylation EIA procedure provided by the manufacturer.
Cells at confluence were rinsed with ice-cold phosphate buffered saline without Ca^2+ and Mg^2+ containing 10 mM EDTA and pelleted by centrifugation at 1000 rpm for 5 min at 4° C. The pellet was then washed twice with ice-cold phosphate buffered saline and cell pellet was frozen immediately by immersion in liquid nitrogen and stored until use at −80° C. Cell pellet was then suspended in 20 ml HEPES-NaOH (20 mM), pH 7.4 containing 10 mM EDTA, and homogenized with a Polytron (PT 3000, Kinematica) at 10,000 rpm for 10 s. The homogenate was centrifuged at 48,000×g for 30 min at 4° C. and the pellet resuspended in 20 ml HEPES-NaOH (20 mM), pH 7.4 containing 0.1 mM EDTA (buffer A), and homogenized with a Polytron at 10,000 rpm for 10 s. The homogenate was then centrifuged at 48,000×g for 30 min at 4° C. and the pellet resuspended in 20 ml buffer A, and homogenized with a Polytron at 10,000 rpm for 10 s. Protein concentration was determined by the method of Pierce (Rockford, Ill.). The homogenate was then centrifuged at 48,000×g for 10 min at 4° C., resuspended in HEPES-NaOH (20 mM), pH 7.0 including MgCl2 (10 mM) and […] homogenized with a Polytron at 10,000 rpm for 10 s.
Binding assay was performed at 4° C. in a final volume of 1 ml, and with an incubation time of 30 min. […] Non-specific binding was defined as the amount of [^3H]-rac-2-(1,2,3,4-tetrahydro-1-naphthyl)-2-imidazoline bound in the presence of the appropriate unlabelled ligand (10 μM). Competing ligands were tested in a wide range of concentrations (10 pM-30 μM). […] Each experiment was performed in duplicate. All incubations were terminated by rapid filtration through UniFilter-96 plates (Packard Instrument Company) and glass filter GF/C, pre-soaked for at least 2 h in polyethylenimine 0.3%, and using a Filtermate 96 Cell Harvester (Packard Instrument Company). The tubes and filters were then washed 3 times with 1 ml aliquots of cold buffer B. Filters were not dried and soaked in Ultima gold (45 μl/well, Packard Instrument Company) and bound radioactivity was counted by a TopCount Microplate Scintillation Counter (Packard Instrument Company).

| SMILES | Ki [µM] |
| --- | --- |
| CCC(C[C@H]1COC(N)=N1)c1cccc(Cl)c1 (stereo partly drawn) [Example 287, (S)-4-[2-(3-Chloro-phenyl)-butyl]-4,5-dihydro-oxazol-2-ylamine] | 0.0027 |
| CC1(c2cccc(Cl)c2F)COC(N)=N1 (racemic) [Example 311, (RS)-4-(3-Chloro-2-fluoro-phenyl)-4-methyl-4,5-dihydro-oxazol-2-ylamine] | 0.0042 |
| CC1(c2ccc(F)cc2Cl)COC(N)=N1 (racemic) [Example 318, (RS)-4-(2-Chloro-4-fluoro-phenyl)-4-methyl-4,5-dihydro-oxazol-2-ylamine] | 0.002 |
| CC[C@]1(c2ccc(Cl)cc2)COC(N)=N1 [Example 313, (S)-4-(4-Chloro-phenyl)-4-ethyl-4,5-dihydro-oxazol-2-ylamine] | 0.005 |
| NC1=N[C@@H](COc2cc(Cl)cc(Cl)c2)CO1 [Example 285, (S)-4-(3,5-Dichloro-phenoxymethyl)-4,5-dihydro-oxazol-2-ylamine] | 0.0045 |
| NC1=N[C@H](c2ccc(Br)cc2Cl)CO1 [Example 315, (−)-(R)-4-(4-Bromo-2-chloro-phenyl)-4,5-dihydro-oxazol-2-ylamine] | 0.0016 |
| NC1=N[C@@H](c2ccc(Br)cc2Cl)CO1 [Example 316, (+)-(S)-4-(4-Bromo-2-chloro-phenyl)-4,5-dihydro-oxazol-2-ylamine] | 0.0003 |
| NC1=N[C@@H](COc2ccc(Br)cc2)CO1 [Example 310, (S)-4-(4-Bromo-phenoxymethyl)-4,5-dihydro-oxazol-2-ylamine] | 0.009 |
| NC1=N[C@@H](CCc2ccccc2Br)CO1 [Example 322, (S)-4-[2-(2-Bromo-phenyl)-ethyl]-4,5-dihydro-oxazol-2-ylamine] | 0.002 |
| NC1=N[C@@H](COc2ccc(Cl)c(Cl)c2)CO1 [Example 284, (S)-4-(3,4-Dichloro-phenoxymethyl)-4,5-dihydro-oxazol-2-ylamine] | 0.0028 |
| Cc1cc([C@@]2(C)COC(N)=N2)ccc1Cl [Example 281, (S)-4-(4-Chloro-3-methyl-phenyl)-4-methyl-4,5-dihydro-oxazol-2-ylamine] | 0.0019 |
| Cc1ccc(Cl)cc1[C@H]1COC(N)=N1 [Example 314, (+)-(S)-4-(5-Chloro-2-methyl-phenyl)-4,5-dihydro-oxazol-2-ylamine] | 0.003 |
| NC1=N[C@@H](c2ccc(Br)c(F)c2)CO1 [Example 321, (+)-(S)-4-(4-Bromo-3-fluoro-phenyl)-4,5-dihydro-oxazol-2-ylamine] | 0.0014 |

Each molecule was assayed on TAAR1 (assay: TAAR1 radioligand binding, membranes of stably transfected HEK293 cells (mouse)). Details: TAAR1 binding assay, species not stated; read-out: calculated Kd value of the radioligand.
Outline: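 Competition binding on membranes from HEK293 cells stably expressing the TAAR1 species ortholog, in HEPES-NaOH pH 7.0 with 10 mM MgCl2 and 2 mM CaCl2, 30 min at 4° C with [3H]-rac-2-(1,2,3,4-tetrahydro-1-naphthyl)-2-imidazoline. Competitors 10 pM–30 μM, duplicates; non-specific binding with 10 μM unlabelled ligand; filtration and scintillation counting.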

| SMILES | Kd [nM] |
| --- | --- |
| c1ccc2c(c1)CCCC2C1=NCCN1 (racemic) [[^3H]-rac-2-(1,2,3,4-tetrahydro-1-naphthyl)-2-imidazoline, reference compound] | 60 |

— patent US8604061B2, “2-aminooxazolines as TAAR1 ligands” (Hoffmann-La Roche Inc., priority 2007, dated 2013)
